Test results taken from PMC4522678, “Adaptation of the human aryl hydrocarbon receptor to sense microbiota-derived indoles” (Scientific Reports, 2015).

Tests used:
chimpanzee AHR [1] = target: T1, chimpanzee AHR (Pan troglodytes, UniProt K7AJA4); assay: gel shift (EMSA) of in vitro translated AHR/ARNT, […] TCDD; assay type: cell-based
T1 construct: in vitro translated chimpanzee AHR; with ARNT
T1 sequence (K7AJA4 1-850): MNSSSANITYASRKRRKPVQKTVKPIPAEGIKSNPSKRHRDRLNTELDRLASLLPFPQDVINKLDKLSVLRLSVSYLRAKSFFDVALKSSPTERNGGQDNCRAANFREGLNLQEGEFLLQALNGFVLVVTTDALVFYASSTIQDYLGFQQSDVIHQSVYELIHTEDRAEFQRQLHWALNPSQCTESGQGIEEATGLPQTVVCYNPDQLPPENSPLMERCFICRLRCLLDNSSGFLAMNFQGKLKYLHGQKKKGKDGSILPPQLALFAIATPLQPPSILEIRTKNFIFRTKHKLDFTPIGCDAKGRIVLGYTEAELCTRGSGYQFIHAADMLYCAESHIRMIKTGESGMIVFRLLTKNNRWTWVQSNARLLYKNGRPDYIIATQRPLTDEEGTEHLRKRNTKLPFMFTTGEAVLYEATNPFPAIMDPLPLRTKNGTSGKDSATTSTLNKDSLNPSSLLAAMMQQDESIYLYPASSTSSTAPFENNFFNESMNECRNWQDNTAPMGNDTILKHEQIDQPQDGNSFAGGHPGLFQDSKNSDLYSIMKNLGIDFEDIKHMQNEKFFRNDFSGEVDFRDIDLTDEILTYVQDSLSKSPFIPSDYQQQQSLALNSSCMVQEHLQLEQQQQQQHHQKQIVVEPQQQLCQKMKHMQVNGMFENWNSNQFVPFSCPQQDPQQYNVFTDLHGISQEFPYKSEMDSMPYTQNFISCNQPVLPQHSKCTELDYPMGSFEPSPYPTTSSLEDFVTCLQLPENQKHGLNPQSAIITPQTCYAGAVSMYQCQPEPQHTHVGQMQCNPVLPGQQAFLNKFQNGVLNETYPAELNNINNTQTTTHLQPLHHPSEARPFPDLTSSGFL

chimpanzee AHR [2] = target: T1, chimpanzee AHR; assay: gel shift (EMSA) of in vitro translated AHR/ARNT, […] indole; assay type: cell-based
[3] = target: T2, human aryl hydrocarbon receptor (AHR) (Homo sapiens, UniProt P35869); assay: competition with radioiodinated photoaffinity ligand in hAHR liver cytosol; also gel shift with in vitro translated hAHR/ARNT; design: human AHR transgene expressed in mouse liver (hepatic cytosol)
Target sequence in this assay (P35869 11-848): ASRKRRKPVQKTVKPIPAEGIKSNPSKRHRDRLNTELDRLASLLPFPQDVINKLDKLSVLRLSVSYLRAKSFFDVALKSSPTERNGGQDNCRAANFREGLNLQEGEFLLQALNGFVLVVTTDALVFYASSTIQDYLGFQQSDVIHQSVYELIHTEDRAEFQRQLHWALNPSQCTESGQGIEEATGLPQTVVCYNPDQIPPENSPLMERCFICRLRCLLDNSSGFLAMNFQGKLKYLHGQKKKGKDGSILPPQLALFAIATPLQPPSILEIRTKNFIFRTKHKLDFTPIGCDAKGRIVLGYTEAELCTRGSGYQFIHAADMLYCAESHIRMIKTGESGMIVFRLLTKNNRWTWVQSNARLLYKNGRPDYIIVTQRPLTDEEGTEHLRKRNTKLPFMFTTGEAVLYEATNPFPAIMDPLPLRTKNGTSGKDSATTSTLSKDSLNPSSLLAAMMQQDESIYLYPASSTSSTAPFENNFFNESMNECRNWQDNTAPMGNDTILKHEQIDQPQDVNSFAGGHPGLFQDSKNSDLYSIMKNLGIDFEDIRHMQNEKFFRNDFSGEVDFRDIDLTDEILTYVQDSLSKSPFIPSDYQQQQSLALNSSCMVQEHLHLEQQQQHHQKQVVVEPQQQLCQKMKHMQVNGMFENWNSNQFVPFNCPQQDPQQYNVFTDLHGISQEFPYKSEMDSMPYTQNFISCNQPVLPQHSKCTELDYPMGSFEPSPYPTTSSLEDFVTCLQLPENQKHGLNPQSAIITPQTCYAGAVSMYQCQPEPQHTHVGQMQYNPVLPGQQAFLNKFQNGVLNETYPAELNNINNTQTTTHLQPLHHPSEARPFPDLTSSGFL

[4] = target: T2, human aryl hydrocarbon receptor (AHR); assay: gel shift (EMSA) of in vitro translated AHR/ARNT; HepG2 reporter; assay type: cell-based; design: in vitro translated human AHR; with ARNT
Target sequence in this assay (P35869 11-848): as above
Target sequence in this assay (P27540 2-789 partner): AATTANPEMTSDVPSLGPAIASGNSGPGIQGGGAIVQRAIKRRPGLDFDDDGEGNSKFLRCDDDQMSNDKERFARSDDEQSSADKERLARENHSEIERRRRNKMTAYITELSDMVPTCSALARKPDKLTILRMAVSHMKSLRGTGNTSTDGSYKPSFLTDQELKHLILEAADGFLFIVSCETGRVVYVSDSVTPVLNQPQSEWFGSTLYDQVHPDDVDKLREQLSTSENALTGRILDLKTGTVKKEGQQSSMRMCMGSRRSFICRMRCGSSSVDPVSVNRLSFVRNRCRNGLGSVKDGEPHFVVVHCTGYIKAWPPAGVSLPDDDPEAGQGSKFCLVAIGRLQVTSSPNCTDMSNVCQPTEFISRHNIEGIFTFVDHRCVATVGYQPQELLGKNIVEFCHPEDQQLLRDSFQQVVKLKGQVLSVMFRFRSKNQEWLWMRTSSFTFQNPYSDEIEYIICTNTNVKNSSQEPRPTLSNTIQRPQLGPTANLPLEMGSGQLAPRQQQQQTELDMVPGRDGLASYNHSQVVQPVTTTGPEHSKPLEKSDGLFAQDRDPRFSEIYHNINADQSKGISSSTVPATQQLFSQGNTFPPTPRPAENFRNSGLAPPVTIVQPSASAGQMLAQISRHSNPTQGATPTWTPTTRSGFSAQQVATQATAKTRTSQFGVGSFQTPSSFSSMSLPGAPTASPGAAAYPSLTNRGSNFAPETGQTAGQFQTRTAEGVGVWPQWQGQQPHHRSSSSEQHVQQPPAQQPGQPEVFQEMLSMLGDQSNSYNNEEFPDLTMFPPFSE

Clc1cc2c(cc1Cl)Oc1cc(Cl)c(Cl)cc1O2 [TCDD]
gel shift (EMSA) of in vitro translated AHR/ARNT, 10 nM TCDD (chimpanzee AHR [1]): revealed chimpanzee AHR to be sensitive to both TCDD and indole-mediated activation

c1ccc2[nH]ccc2c1 [indole]
gel shift (EMSA) of in vitro translated AHR/ARNT, 20 μM indole (chimpanzee AHR [2]): revealed chimpanzee AHR to be sensitive to both TCDD and indole-mediated activation
competition with radioiodinated photoaffinity ligand in hAHR liver cytosol; also [3]: dose-dependent decrease in PAL binding consistent with indole being a competitor and direct ligand for the human AHR

Cc1c[nH]c2ccccc12 [3-MI, 3-methyl indole]
gel shift (EMSA) of in vitro translated AHR/ARNT; HepG2 reporter [4]: 3-methyl indole, like indole was associated with enhanced binding of AHR/ARNT to its cognate response element
